Results on five compounds are retold here after patent US6407217B1, “Imidazolinone haptens and antigens and enzyme conjugates prepared therefrom” (American Cyanamid Company, priority 1994, dated 2002).

Common to all, as to assay type: binding, mouse
For experiment [1], the target named is monoclonal antibody 3A5.1. Briefly: Indirect competitive enzyme immunoassay, monoclonal antibody 3A5.1. The text has this: (§1) An indirect enzyme immunoassay is used to screen for the production of anti-imidazolinone anti-bodies in the serum of the immunized mice and in cell fusion cultures. The method used is essentially the same as the method described by Voller, et al (Manual of Clinical Immunology, eds. N. Rose Friedman, H., pp. 506-512, 1976). For the indirect enzyme immunoassays, an antigen is adsorbed onto polystyrene flat bottom wells in 0.1M Na2CO3 buffer pH 9.6. Excess unbound material is washed away with buffer (PBS, containing 0.01M NaH2PO4—Na2HPO4 pH 7.6 with 0.05% TWEEN® 20 (a polyoxyethyene sorbitan monolaurate surpactantor Atlas chemical industries and 0.02% NaN3). A 0.05% gelatin solution prepared in PBS is used to block the sites unoccupied by the antigen to prevent non-specific binding of reagents. Antibody from serum or culture are added into the wells for binding to the bound antigen. The wells are washed and the amount of bound anitbody is determined by adding alkaline phosphatase-conjugated goat anti-mouse IgG (Boehringer) to the wells followed by the addition of a p-nitrophenyl phosphate solution for color development. The color intensity is determined spectrophotometrically and is used to determine the titers.
(§2) The bound antigen and imidazolinone compound compete for the antibody molecules. The wells are then washed and the color is developed as described above. In this assay, the color is inversely proportional to the amount of imidazolinone compound. In practice, standard curves are generated with known amounts of an imidazolinone compound and amounts present in test samples are calculated by interpolation.
(§3) Indirect competitive enzyme immunoassays for several imidazolinone compounds, using various monoclonal antibodies and antigens, are conducted according to the procedure described in Example 9. Antigens G and H are as described in Example 10 and Antigen I is shown below.

For experiment [2], the target named is monoclonal antibody 3A2.2. The experiment in a line: Indirect competitive enzyme immunoassay, monoclonal antibody 3A2.2.
Excerpt: as §1, §2, §3

Experiment [3] has as its target monoclonal antibody 1A5.5. Briefly: Indirect competitive enzyme immunoassay, monoclonal antibody 1A5.5. To be noted: for I50 (half-maximal inhibition): MAb 1A5.5, coating antigen H.
Excerpt: as §1, §2, §3

Experiment [4] has as its target monoclonal antibody 2C6.5. Briefly: Indirect competitive enzyme immunoassay, monoclonal antibody 2C6.5.
Excerpt: as §1, §2, §3

The target of experiment [5] is monoclonal antibody 1D2.6. Briefly: Indirect competitive enzyme immunoassay, monoclonal antibody 1D2.6.
Excerpt: as §1, §2, §3

For experiment [6], the system named is monoclonal antibody 3A2.2. The experiment in a line: Direct competitive enzyme immunoassay with MAb 3A2.2 and alkaline phosphatase enzyme conjugate. As to conditions: mean of triplicate. The text has this: The monoclonal antibody 3A2.2 prepared in Example 10 and the enzyme conjugate prepared in Example 12 are used to establish a direct competitive enzyme immunoassay method for the determination of the concentration of imazapyr in samples. A constant amount of the monoclonal antibody 3A2.2 is adsorbed onto polystyrene plate wells through an affinity purified goat anti-mouse immunoglobulin which is previously adsorbed onto the polystyrene plate wells. The wells are washed with buffer (PBS, containing 0.01M NaH2PO4—Na2HPO4 pH 7.6 with 0.05% TWEEN® 20 (a polyoxyethylene sorbitan monolaurate surfactant of Atlas Chemical Industries and 0.02% NaN3) and blocked with a 0.05% gelatin solution prepared in PBS. Standard solutions having concentrations of imazapyr from 0 to 5,000 ng/mL are added to the blocked wells followed by the addition of the aforementioned enzyme conjugate.
After several minutes, the wells are washed and the color is developed by adding BRL alkaline phosphatase substrate amplification kit (commercially available from GIBCO BRL Life Technologies Inc., […], Md.). After several minutes, readings are taken for each well at 490 nm using a microwell reader.
A standard curve plot having the log of imazapyr concentration on the x-axis and the optical density reading at 490 nm (OD 490) on the Y-axis is used to determine unknown concentrations of imazapyr present in soil, water or plant samples from their OD 490 values.
The OD 490 readings for 6 imazapyr standard solutions and a solvent blank are obtained from a direct enzyme immunoassay experiment run in triplicate. The standard curve obtained by plotting the mean OD 490 reading versus the logarithm of the standard imazapyr concentration is used to determine unknown imazapyr concentrations from about 0.5 ng/mL to 500 ng/mL.

With `Cc1cnc(C2=NC(C)(C(C)C)C(=O)N2)c(C(=O)O)c1` (stereo not drawn) [Imazamethapyr, 2-(4-isopropyl-4-methyl-5-oxo-2-imidazolin-2-yl)-5-methylnicotinic acid], the “I50 (half-maximal inhibition)” value in experiment [1] (MAb 3A5.1, coating antigen G) is >1,000 ppb (ng/mL); in experiment [1] (MAb 3A5.1, coating antigen I), 340 ppb (ng/mL); in experiment [2] (MAb 3A2.2, coating antigen G) it was 31 ppb (ng/mL); in experiment [2] (MAb 3A2.2, coating antigen I), 27 ppb (ng/mL); in experiment [3] it was 100 ppb (ng/mL); in experiment [4] (MAb 2C6.5, coating antigen G), 171 ppb (ng/mL). In addition, the “I50 (half-maximal inhibition)” value is reported as 204 ppb (ng/mL) in experiment [4] (MAb 2C6.5, coating antigen I); >10,000 ppb (ng/mL) in experiment [5] (MAb 1D2.6, coating antigen G); 250 ppb (ng/mL) in experiment [5] (MAb 1D2.6, coating antigen I).
In the case of `CC(C)C1(C)N=C(c2ncccc2C(=O)O)NC1=O` (stereo not drawn) [Imazapyr, 2-(4-isopropyl-4-methyl-5-oxo-2-imidazolin-2-yl)nicotinic acid], the “I50 (half-maximal inhibition)” value in experiment [1] (MAb 3A5.1, coating antigen I) is on record as >5,000 ppb (ng/mL); in experiment [2] (MAb 3A2.2, coating antigen G) it was 290 ppb (ng/mL); in experiment [2] (MAb 3A2.2, coating antigen I) it was 331 ppb (ng/mL); in experiment [3], 500 ppb (ng/mL); in experiment [5] (MAb 1D2.6, coating antigen G), >10,000 ppb (ng/mL); in experiment [5] (MAb 1D2.6, coating antigen I), >1,000 ppb (ng/mL). For the same compound, the “OD 490 Reading” value was 2.671 in experiment [6] (imazapyr 0.05 ng/mL); 2.507 in experiment [6] (imazapyr 0.50 ng/mL); 1.893 in experiment [6] (imazapyr 5.0 ng/mL); 0.801 in experiment [6] (imazapyr 50 ng/mL); 0.474 in experiment [6] (imazapyr 500 ng/mL); 0.446 in experiment [6] (imazapyr 5,000 ng/mL).
Regarding `CC(C)C1(C)N=C(c2nc3ccccc3cc2C(=O)O)NC1=O` (stereo not drawn) [Imazaquin, 2-(4-isopropyl-4-methyl-5-oxo-2-imidazolin-2-yl)-3-quinolinecarboxylic acid], the “I50 (half-maximal inhibition)” value in experiment [1] (MAb 3A5.1, coating antigen I) was 800 ppb (ng/mL); in experiment [2] (MAb 3A2.2, coating antigen G), 5 ppb (ng/mL); in experiment [2] (MAb 3A2.2, coating antigen I), 3 ppb (ng/mL); in experiment [3] it was >1,000 ppb (ng/mL); in experiment [5] (MAb 1D2.6, coating antigen G), >10,000 ppb (ng/mL); in experiment [5] (MAb 1D2.6, coating antigen I) it was 2,000 ppb (ng/mL).
As to `CCc1cnc(C2=NC(C)(C(C)C)C(=O)N2)c(C(=O)O)c1` (stereo not drawn) [Imazethapyr, 5-ethyl-2-(4-isopropyl-4-methyl-5-oxo-2-imidazolin-2-yl)nicotinic acid], the “I50 (half-maximal inhibition)” value in experiment [1] (MAb 3A5.1, coating antigen G) was >1,000 ppb (ng/mL); in experiment [1] (MAb 3A5.1, coating antigen I), 220 ppb (ng/mL); in experiment [2] (MAb 3A2.2, coating antigen G), 34 ppb (ng/mL); in experiment [2] (MAb 3A2.2, coating antigen I) it was 21 ppb (ng/mL); in experiment [3] it was 60 ppb (ng/mL); in experiment [4] (MAb 2C6.5, coating antigen G), 13 ppb (ng/mL). Further, the “I50 (half-maximal inhibition)” value in experiment [4] (MAb 2C6.5, coating antigen I) was 15 ppb (ng/mL); in experiment [5] (MAb 1D2.6, coating antigen G) it was >10,000 ppb (ng/mL); in experiment [5] (MAb 1D2.6, coating antigen I), 20 ppb (ng/mL). In addition, the “affinity compared to the other imidazolinone compounds” value in experiment [3] (MAb 1A5.5) and in experiment [5] (MAb 1D2.6) was “greater affinity” throughout.
Turning to “mixture of methyl 6-(4-isopropyl-4-methyl-5-oxo-2-imidazolin-2-yl)-m-toluate and methyl 2-(4-isopropyl-4-methyl-5-oxo-2-imidazolin-2-yl)-p-toluate [Imazamethabenz-methyl]”, the “I50 (half-maximal inhibition)” value was 400 ppb (ng/mL) in experiment [1] (MAb 3A5.1, coating antigen G); 90 ppb (ng/mL) in experiment [1] (MAb 3A5.1, coating antigen I); 322 ppb (ng/mL) in experiment [2] (MAb 3A2.2, coating antigen G); 356 ppb (ng/mL) in experiment [2] (MAb 3A2.2, coating antigen I); 500 ppb (ng/mL) in experiment [3]; >10,000 ppb (ng/mL) in experiment [5] (MAb 1D2.6, coating antigen G). In experiment [5] (MAb 1D2.6, coating antigen I), the “I50 (half-maximal inhibition)” value was 105 ppb (ng/mL).
